pIC50: −log10 of the molar value. Read-outs that look alike come from different tables or passages of the source.

What all share (format): biochemical
In assay [1] the target is LCK (Homo sapiens, UniProt P06239). The assay can be described thus: Inhibition of a panel of kinases, in vitro HotSpot kinase assay: LCK. The settings on record: read-out: IC50 LCK.
For assay [2], the target named is T1, ITK (Homo sapiens, UniProt Q08881).
T1 sequence (Q08881 1-620): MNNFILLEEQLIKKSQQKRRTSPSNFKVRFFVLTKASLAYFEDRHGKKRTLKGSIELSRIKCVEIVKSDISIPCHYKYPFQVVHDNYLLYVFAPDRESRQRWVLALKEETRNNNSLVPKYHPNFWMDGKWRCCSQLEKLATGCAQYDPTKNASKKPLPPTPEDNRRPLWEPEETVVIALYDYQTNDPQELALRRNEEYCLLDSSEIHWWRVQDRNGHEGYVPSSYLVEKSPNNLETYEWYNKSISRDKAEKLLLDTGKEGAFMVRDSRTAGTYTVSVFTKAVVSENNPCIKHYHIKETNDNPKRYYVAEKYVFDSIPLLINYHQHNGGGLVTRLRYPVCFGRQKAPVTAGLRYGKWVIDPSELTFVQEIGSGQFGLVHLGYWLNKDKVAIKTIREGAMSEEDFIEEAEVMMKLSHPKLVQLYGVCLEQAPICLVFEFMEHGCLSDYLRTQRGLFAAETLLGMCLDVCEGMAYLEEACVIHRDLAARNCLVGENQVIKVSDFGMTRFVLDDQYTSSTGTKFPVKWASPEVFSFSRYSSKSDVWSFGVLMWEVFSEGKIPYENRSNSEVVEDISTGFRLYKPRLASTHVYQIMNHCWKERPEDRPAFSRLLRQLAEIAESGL
Description: Inhibition of a panel of kinases, in vitro HotSpot kinase assay: ITK. On the procedure:
The degree of inhibition of a panel of kinases is determined using the in vitro HotSpot kinase assay (purified enzymes, ^33P-ATP, an appropriate substrate and 1 μM ATP).

Assay [3] deals with T2, JAK3 (Homo sapiens, UniProt P52333).
T2 sequence (P52333 1-1124): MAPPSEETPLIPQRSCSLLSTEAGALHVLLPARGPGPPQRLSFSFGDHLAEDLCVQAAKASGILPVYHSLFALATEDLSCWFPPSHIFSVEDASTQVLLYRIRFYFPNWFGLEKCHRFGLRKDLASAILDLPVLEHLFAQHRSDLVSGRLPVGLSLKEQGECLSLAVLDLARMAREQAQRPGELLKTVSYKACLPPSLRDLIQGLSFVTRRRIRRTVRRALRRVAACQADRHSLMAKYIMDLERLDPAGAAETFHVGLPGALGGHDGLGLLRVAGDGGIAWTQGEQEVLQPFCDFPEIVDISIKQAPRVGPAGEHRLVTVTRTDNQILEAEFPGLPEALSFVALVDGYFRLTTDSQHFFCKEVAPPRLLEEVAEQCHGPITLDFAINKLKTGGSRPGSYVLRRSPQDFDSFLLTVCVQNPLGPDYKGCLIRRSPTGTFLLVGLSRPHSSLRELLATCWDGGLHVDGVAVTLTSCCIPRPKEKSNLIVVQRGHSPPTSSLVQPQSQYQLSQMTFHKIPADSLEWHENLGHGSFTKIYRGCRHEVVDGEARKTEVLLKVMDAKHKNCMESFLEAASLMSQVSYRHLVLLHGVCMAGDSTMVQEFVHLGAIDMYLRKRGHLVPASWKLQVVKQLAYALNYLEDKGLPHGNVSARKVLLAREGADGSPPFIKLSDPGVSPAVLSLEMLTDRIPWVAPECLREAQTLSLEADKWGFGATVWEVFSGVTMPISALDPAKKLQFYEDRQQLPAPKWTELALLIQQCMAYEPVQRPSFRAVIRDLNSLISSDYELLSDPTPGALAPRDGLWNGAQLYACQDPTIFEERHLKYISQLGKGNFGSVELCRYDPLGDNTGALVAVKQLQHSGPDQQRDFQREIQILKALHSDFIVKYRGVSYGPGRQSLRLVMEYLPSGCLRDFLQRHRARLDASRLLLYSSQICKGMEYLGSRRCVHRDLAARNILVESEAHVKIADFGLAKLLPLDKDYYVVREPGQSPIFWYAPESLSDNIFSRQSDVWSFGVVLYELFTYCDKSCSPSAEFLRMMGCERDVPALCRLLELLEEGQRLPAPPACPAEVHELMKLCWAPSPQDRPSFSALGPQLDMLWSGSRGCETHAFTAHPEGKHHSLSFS
The assay can be described thus: Inhibition of a panel of kinases, in vitro HotSpot kinase assay: JAK3. The settings on record: read-out: IC50 JAK3.

Where [4] appears, read: Table 13, A compounds, 1 μM ATP.

Sequence of LCK (P06239 whole entry): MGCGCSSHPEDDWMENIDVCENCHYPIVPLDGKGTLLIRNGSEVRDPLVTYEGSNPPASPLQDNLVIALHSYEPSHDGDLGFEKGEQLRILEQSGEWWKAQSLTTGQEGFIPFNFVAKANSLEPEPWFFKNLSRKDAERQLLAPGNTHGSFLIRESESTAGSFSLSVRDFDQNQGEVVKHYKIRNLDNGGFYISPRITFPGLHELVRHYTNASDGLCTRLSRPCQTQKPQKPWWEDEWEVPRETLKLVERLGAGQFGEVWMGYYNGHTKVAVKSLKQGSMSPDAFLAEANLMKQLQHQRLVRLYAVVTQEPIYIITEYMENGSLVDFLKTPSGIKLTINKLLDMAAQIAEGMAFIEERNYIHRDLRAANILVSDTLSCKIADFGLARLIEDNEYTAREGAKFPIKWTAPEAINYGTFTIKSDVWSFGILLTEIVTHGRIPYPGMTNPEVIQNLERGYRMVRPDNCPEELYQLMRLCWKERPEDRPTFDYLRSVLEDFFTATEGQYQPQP

In the case of `C[C@@H]1[C@H](NC(=O)c2ccc(C3CC3)cn2)CCCN1c1cnc(C(N)=O)c(Nc2ccc(N3CCN(C)CC3)cc2)n1` [Example A-179, 5-[(2R,3R)-3-(5-cyclopropyl-pyridine-2-amido)-2-methylpiperidin-1-yl]-3-{[4-(4-methylpiperazin-1-yl)phenyl]amino}pyrazine-2-carboxamide], the results for the pIC50 in assay [1] (setting [4]), in assay [2] (setting [4]) and in assay [3] (setting [4]) were 6.00 to 7.00, 6.00 to 7.00 and 5.00 to 6.00, respectively.
Take `C[C@@H]1[C@H](NC(=O)c2ccc(C3CC3)cc2F)CCCN1c1cnc(C(N)=O)c(Nc2ccc(CN3CCN(C)CC3)cc2)n1` [Example A-106, 5-[(2R,3R)-3-(4-cyclopropyl-2-fluorobenzamido)-2-methylpiperidin-1-yl]-3-({4-[(4-methylpiperazin-1-yl)meth-yl]phenyl}amino)pyrazine-2-carboxamide]: the pIC50 in assay [1] (setting [4]) was 7.00 to 8.00; in assay [2] (setting [4]), 6.00 to 7.00; in assay [3] (setting [4]) it was 6.00 to 7.00.
As for `CN1CCN(c2ccc(Nc3nc(N4CCC[C@@H](n5ccc6cc(C7CC7)cc(F)c6c5=O)C4)cnc3C(N)=O)cc2)CC1` [Example A-133, 5-[(3R)-3-(6-cyclo-propyl-8-fluoro-1-oxo-1,2-dihydroisoquinolin-2-yl)piperidin-1-yl]-3-{[4-(4-methylpiperazin-1-yl)phenyl]amino}pyrazine-2-carboxamide], the pIC50 in assay [1] (setting [4]), in assay [2] (setting [4]) and in assay [3] (setting [4]) was 6.00 to 7.00 throughout.
As for `C[C@@H]1[C@H](NC(=O)c2ccc(C3CC3)cc2)CCCN1c1cnc(C(N)=O)c(Nc2cnn(C)c2)n1` [Example A-169, 5-[(2R,3R)-3-(4-cyclopropylbenzamido)-2-methylpiperidin-1-yl]-3-[(1-methyl-1H-pyrazol-4-yl)amino]pyrazine-2-carboxamide], the negative logarithm of the IC50 (pIC50) was 6.00 to 7.00 in assay [1] (setting [4]), 5.00 to 6.00 in assay [2] (setting [4]) and 5.00 to 6.00 in assay [3] (setting [4]).
Regarding `C=CC(=O)N1CC[C@@H](N(C)c2nnc(C(N)=O)c(Nc3ccc(C(C)C)cc3)n2)C1` [Example E-26, (R)-3-((1-acryloylpyrrolidin-3-yl)(methyl)amino)-5-(4-isopropylphenylamino)-1,2,4-triazine-6-carboxamide], the pIC50 in assay [1] (E compounds, Table 17) was 5.00 to 6.00; in assay [2] (E compounds, Table 17), ≥ 8.00; in assay [3] (E compounds, Table 17), > 8.00.
The matching figures for `C[C@@H]1[C@H](NC(=O)c2cc(C(C)(C)C)nn2C)CCCN1c1cnc(C(N)=O)c(Nc2cnn(C)c2)n1` [Example E-146, 5-((2R,3R)-3-(3-(tert-butyl)-1-methyl-1H-pyrazole-5-carboxamido)-2-methylpiperidin-1-yl)-3-((1-methyl-1H-pyrazol-4-yl)amino)pyrazine-2-carboxamide]: 7.00 to 8.00, 6.00 to 7.00 and 5.00 to 6.00.
In the case of `C=CC(=O)N[C@@H]1CCCN(c2nnc(C(N)=O)c(Nc3ccc(C4(C)CCN(C5CC5)CC4)cc3)n2)[C@@H]1C` [Example E-2, 3-((2R,3R)-3-acrylamido-2-methylpiperidin-1-yl)-5-((4-(1-cyclopropyl-4-methylpiperidin-4-yl)phenyl)amino)-1,2,4-triazine-6-carboxamide], the pIC50 in assay [1] (E compounds, Table 17) is 6.00 to 7.00; in assay [2] (E compounds, Table 17), 7.00 to 8.00; in assay [3] (E compounds, Table 17) it was 7.00 to 8.00.
For the compound `C[C@@H]1[C@H](NC(=O)c2ccc(C3CC3)cc2F)CCCN1c1cnc(C(N)=O)c(Nc2ccc(C(=O)N3CCN(C)CC3)cc2)n1` [Example A-122, 5-[(2R,3R)-3-(4-cyclopropyl-2-fluorobenzamido)-2-methylpiperidin-1-yl]-3-{[4-(4-methylpiperazine-1-carbonyl)phenyl]amino}pyr-azine-2-carboxamide], the pIC50 in assay [1] (setting [4]), in assay [2] (setting [4]) and in assay [3] (setting [4]) was 6.00 to 7.00 throughout.
Turning to `Cn1cc(Nc2nc(N3CCC[C@@H](n4ccc5cc(C6CC6)ccc5c4=O)C3)cnc2C(N)=O)cn1` [Example A-167, 5-[(3R)-3-(6-cyclopropyl-1-oxo-1,2-dihydroisoquinolin-2-yl)piperidin-1-yl]-3-[(1-methyl-1H-pyrazol-4-yl)amino]pyrazine-2-carboxamide], the values for the pIC50 in assay [1] (setting [4]), in assay [2] (setting [4]) and in assay [3] (setting [4]) were 5.00 to 6.00, < 5.00 and < 5.00, respectively.
With `C=CC(=O)N1CC[C@@H](N(C)c2cnc(C(N)=O)c(Nc3ccc(C4CCN(C5CCCC5)CC4)cc3)n2)C1` [Example E-109, (R)-5-((1-acryloylpyrrolidin-3-yl)(methyl)amino)-3-(4-(1-cyclopentylpiperidin-4-yl)phenylamino)pyrazine-2-carboxamide], the pIC50 in assay [1] (E compounds, Table 17) was 6.00 to 7.00; in assay [2] (E compounds, Table 17) it was ≥ 8.00; in assay [3] (E compounds, Table 17), > 8.00.
As for `C[C@@H]1[C@H](NC(=O)c2ccc(C3CC3)nc2)CCCN1c1cnc(C(N)=O)c(Nc2cnn(C)c2)n1` [Example A-190, 5-((2R,3R)-3-(6-cyclopropylnicotinamido)-2-methylpiperidin-1-yl)-3-(1-methyl-1H-pyrazol-4-ylamino)pyr-azine-2-carboxamide], the results for the pIC50 in assay [1] (setting [4]), in assay [2] (setting [4]) and in assay [3] (setting [4]) were 6.00 to 7.00, 6.00 to 7.00 and 5.00 to 6.00, respectively.
Regarding `Cn1cc(Nc2nc(N3CCC4CCN(C(=O)c5ccc(C6CC6)cc5)C4C3)cnc2C(N)=O)cn1` (stereo not drawn) [Example E-141, 5-(1-(4-cyclopropylbenzoyl)octahydro-6H-pyrrolo[2,3-c]pyridin-6-yl)-3-((1-methyl-3H-pyrazol-4-yl)amino)pyrazine-2-carboxamide], the pIC50 in assay [1] (E compounds, Table 17) is 6.00 to 7.00; in assay [2] (E compounds, Table 17), 5.00 to 6.00; in assay [3] (E compounds, Table 17), 5.00 to 6.00.
Regarding `C[C@@H]1[C@H](NC(=O)c2ccc(C3CC3)cc2)CCCN1c1cnc(C(N)=O)c(Nc2ccc(N3CCN(C)CC3)cc2)n1` [Example A-170, 5-[(2R,3R)-3-(4-cyclopropylbenzamido)-2-methylpiperidin-1-yl]-3-{[4-(4-methylpiperazin-1-yl)phenyl]amino}pyrazine-2-carboxamide], the figures for the negative logarithm of the IC50 (pIC50) in assay [1] (setting [4]), in assay [2] (setting [4]) and in assay [3] (setting [4]) were 7.00 to 8.00, 6.00 to 7.00 and 5.00 to 6.00, respectively.
In the case of `Cc1cc(C(=O)N[C@@H]2CCCN(c3cnc(C(N)=O)c(Nc4cnn(C)c4)n3)[C@@H]2C)ccc1C(C)(C)O` [Example E-152, 5-((2R,3R)-3-(4-(2-hydroxypropan-2-yl)-3-methylbenzamido)-2-methylpiperidin-1-yl)-3-((1-methyl-1H-pyrazol-4-yl)amino)pyrazine-2-carboxamide], the pIC50 was 7.00 to 8.00 in assay [1] (E compounds, Table 17); 6.00 to 7.00 in assay [2] (E compounds, Table 17); 6.00 to 7.00 in assay [3] (E compounds, Table 17).
In the case of `C=CC(=O)N1CC[C@@H](N(C)c2cnc(C(N)=O)c(Nc3ccc(C4CCN(C5CC5)CC4)cc3)n2)C1` [Example E-121, (R)-5-((1-acryloylpyrrolidin-3-yl)(methyl)amino)-3-(4-(1-cyclopropylpiperidin-4-yl)phenylamino)pyrazine-2-carboxamide], the pIC50 in assay [1] (E compounds, Table 17) is 7.00 to 8.00; in assay [2] (E compounds, Table 17), ≥ 8.00; in assay [3] (E compounds, Table 17), > 8.00.
